Assay [1] has as its target T1, mouse FAP (Mus musculus, UniProt P97321).
T1 construct: biotinylated His, Avi tag, mouse FAP (26-761, FAP-M82Q5); His; Avi tag (biotinylated); purchased AcroBiosystems FAP-M82Q5
T1 sequence (P97321 26-761): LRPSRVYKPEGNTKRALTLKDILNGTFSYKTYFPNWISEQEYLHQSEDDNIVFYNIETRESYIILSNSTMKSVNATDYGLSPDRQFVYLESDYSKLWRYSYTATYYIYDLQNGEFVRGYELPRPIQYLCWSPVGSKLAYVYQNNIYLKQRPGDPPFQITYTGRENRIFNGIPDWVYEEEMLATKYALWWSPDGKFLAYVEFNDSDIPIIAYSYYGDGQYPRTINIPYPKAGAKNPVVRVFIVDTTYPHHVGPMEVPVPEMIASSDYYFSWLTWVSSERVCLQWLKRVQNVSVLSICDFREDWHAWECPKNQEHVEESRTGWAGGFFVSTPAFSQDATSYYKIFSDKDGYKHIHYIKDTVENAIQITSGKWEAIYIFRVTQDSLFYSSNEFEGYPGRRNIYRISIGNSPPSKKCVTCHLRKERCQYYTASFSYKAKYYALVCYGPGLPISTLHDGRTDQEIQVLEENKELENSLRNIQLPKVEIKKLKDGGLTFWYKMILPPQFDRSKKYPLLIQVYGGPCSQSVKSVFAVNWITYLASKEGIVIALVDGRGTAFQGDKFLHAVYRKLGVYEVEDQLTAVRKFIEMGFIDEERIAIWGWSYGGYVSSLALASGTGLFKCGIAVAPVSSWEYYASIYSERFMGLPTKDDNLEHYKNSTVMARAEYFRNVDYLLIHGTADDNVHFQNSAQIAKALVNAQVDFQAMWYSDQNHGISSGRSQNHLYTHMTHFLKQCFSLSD
Nature of the assay: Surface plasmon resonance (SPR) for peptide affinity, mouse FAP. The format is binding. On the procedure:
Peptide affinities (KD) were determined by SPR using a Biacore™ 8K device (Cytiva) towards the following proteins: biotinylated His, Avi tag, human FAP (26-760, FAP-H82Q6), biotinylated His, Avi tag, mouse FAP (26-761, FAP-M82Q5), His tag, human DPP4 (34-766, DP4-H82E3), all purchased from AcroBiosystems and His tag, mouse DPP4 (29-760, 954-SE) from R&D Systems. The FAP proteins and their homologous were diluted to a concentration of 2 μg/mL into acetate buffer pH 5.5, then immobilized onto a CM5 sensorchip (Cytiva, BR-1005-30) to reach a response around 2000 R U. The running buffer HBS-EP+pH 7.6 (20× from Teknova CAT. No: H8022) contained 10 mM HEPES pH 7.6, 150 mM NaCl, 3 mM EDTA, 0.05% Tween20 and 2% DMSO. Experiments were carried out at 25° C. using a flow rate of 30 μL/min. Compounds were tested in single cycle kinetic mode at 8 different concentrations. Curve fitting was performed using the Biacore™ 8K evaluation software. The sensorgrams were fitted by applying a 1:1 binding model to calculate kinetic rate constants and equilibrium dissociation constants (KD).
For this assay, the setup had the same conditions (flow rate, running buffer, peptide dilution) as described above for the CM5 method. The oligo CAP reagent obtained in the CAPture Kit (Ref. 28920234) was 1/5 diluted into running buffer and used with a contact time of 300 s at a flow rate of 2 μL/min. The human and mouse FAP constructs described above were used (from AcroBiosystems or produced in house). The FAP proteins were diluted to a concentration of 2 μg/mL into acetate pH 5.5, 0.05% Tween20 and used with a contact time of 600 s at a flow rate of 10 μL/min. The peptides were tested with an association time of 280 s followed by a dissociation time of 3000 s at a flow rate of 30 μL/min. The regeneration was done using the regeneration solution (8 M guanidine-HCl, 1 M NaOH) as obtained with a contact time of 270 s at a flow rate of 10 μL/min. […] The compounds marked with an asterisk were tested against human and mouse DDP4.
(Surface plasmon resonance follows binding to a sensor surface in real time, without labels.)

The target of another assay is T2, human FAP (Homo sapiens, UniProt Q12884).
T2 construct: the biotinylated His, Avi tag, human FAP (26-760, FAP-H82Q6); His; Avi tag (biotinylated); purchased AcroBiosystems FAP-H82Q6
T2 sequence (Q12884 26-760): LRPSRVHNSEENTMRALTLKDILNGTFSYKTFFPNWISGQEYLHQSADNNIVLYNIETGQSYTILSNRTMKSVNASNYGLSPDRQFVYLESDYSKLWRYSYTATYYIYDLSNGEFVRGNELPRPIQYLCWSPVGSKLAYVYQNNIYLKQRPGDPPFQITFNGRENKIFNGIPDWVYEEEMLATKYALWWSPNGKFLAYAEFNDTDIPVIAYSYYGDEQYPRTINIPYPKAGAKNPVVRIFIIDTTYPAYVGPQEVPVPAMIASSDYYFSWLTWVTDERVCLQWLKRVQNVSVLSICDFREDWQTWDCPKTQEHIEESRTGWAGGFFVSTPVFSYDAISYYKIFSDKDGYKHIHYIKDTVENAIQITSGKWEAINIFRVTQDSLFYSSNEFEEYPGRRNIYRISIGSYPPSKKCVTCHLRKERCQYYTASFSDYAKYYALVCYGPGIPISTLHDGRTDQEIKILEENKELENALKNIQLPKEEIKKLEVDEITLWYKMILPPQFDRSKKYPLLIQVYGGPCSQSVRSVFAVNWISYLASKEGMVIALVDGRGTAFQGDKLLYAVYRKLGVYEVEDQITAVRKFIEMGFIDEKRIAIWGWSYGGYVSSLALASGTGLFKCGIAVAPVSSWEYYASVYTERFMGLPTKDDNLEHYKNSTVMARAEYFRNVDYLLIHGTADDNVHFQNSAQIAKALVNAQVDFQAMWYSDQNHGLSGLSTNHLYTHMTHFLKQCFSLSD
Nature of the assay: Enzymatic FAP competition assay (Z-Gly-Pro-AMC fluorescence), human FAP. Conditions: read-out: h. FAP, Enz., IC50. The class given is biochemical. How it is done: (§1) Peptide potencies (IC50) to inhibit the FAP enzymatic activity were determined using a fluorescence-based assay towards the biotinylated His, Avi tag, human FAP (26-760, FAP-H82Q6) and the biotinylated His, Avi tag, mouse FAP (26-761, FAP-M82Q5). Standard assay conditions consisted of 20 μL total volume in white 384-well plates (Greiner, Ref. 784075), in 50 mM phosphate buffer pH 7.5 containing 150 mM NaCl, 0.05% Tween20 and 1% final DMSO. Tested peptides at 14 different concentrations up to 1 μM were added to 0.01 nM human or mouse FAP. The peptides were incubated for 24 hours together with the protein before adding the substrate 50 μM Z-Gly-Pro-AMC (I-1145 from Bachem). Samples were then incubated at 22-24° C. for 4 h before reading the fluorescence at excitation wavelength of 380 nm and emission wavelength of 460 nm using the Tecan Infinite® M1000 PRO. The high control (100% activity) was not containing any peptide, and an internal potent peptide was added at 10 μM concentration for the low control (100% inhibition). IC50 values were calculated by curve fitting using an in-house developed software (Novartis Helios software application) using the method described by Fomenko et al., 2006 (regression algorithms for nonlinear dose-response curve fitting). Following normalization of activity values for the wells to % inhibition (% inhibition=[(high control-sample)/(high control-low control)]x 100). IC50 fitting was carried out from the duplicated points.

Assay [2] concerns the target T1, mouse FAP. The assay is described as follows: Enzymatic FAP competition assay (Z-Gly-Pro-AMC fluorescence), mouse FAP. The following applies: read-out: m. FAP, Enz., IC50. The format is biochemical. How it is done: as §1

Each structure is given as a SMILES string. Where a name gives a salt, the structure may show the parent alone. Starred links: 1 amine or outer side, 2 acyl side, 3 side chain; linkers in the order of their positions; H or OH if unused. Non-standard residues stand in square brackets, D forms with d. Residues, ends and D or L forms follow the SMILES beside them. Groups on a side chain read outwards from the residue. *: point of attachment. Piperazinyl(4-CH2COOH) = O=C(O)CN1CCN(*)CC1; AEF = NCCOc1ccc(C[C@H](N)C(=O)O)cc1; mTyr = N[C@@H](Cc1cccc(O)c1)C(=O)O; NMeF = CN[C@@H](Cc1ccccc1)C(=O)O; Ahp(2) = CCCCC[C@H](N)C(=O)O; NMeK = CN[C@@H](CCCCN)C(=O)O; Orn = NCCC[C@H](N)C(=O)O; Dab = NCC[C@H](N)C(=O)O; CO = O=C([*:1])[*:2]

From US20250090699A1, “FAP TARGETING CYCLIC PEPTIDES AND CONJUGATES THEREOF” (Novartis AG, priority 2023, published 2025) come the findings set out here.

As a reminder, the Kd is the concentration at which binding is half-saturated. The low end stands for tighter binding, the high end for weaker binding. In general, IC50 refers to the concentration that inhibits the measured activity by half.

On to `CCCCC[C@@H]1NC(=O)[C@H](Cc2ccc(O)cc2)NC(=O)[C@H](Cc2ccccc2)N(C)C(=O)CNC(=O)CNC(=O)[C@H]2CCCN2C(=O)[C@H](CC(=O)O)NC(=O)[C@H](CCCCNC(=O)N2CCN(CC(=O)O)CC2)N(C)C(=O)CNC(=O)[C@H](Cc2c[nH]c3ccccc23)NC1=O` [Example A3, 2-((9S,12S,15S,18S,24S,27S,32aR)-18-((1H-indol-3-yl)methyl)-9-benzyl-24-(4-(4-(carboxymethyl)piperazine-1-carboxamido)butyl)-12-(4-hydroxybenzyl)-8,23-dimethyl-1,4,7,10,13,16,19,22,25,28-decaoxo-15-pentyldotriacontahydropyrrolo[1,2-a][1,4,7,10,13,16,19,22,25,28]decaazacyclotriacontin-27-yl)acetic acid TFA salt] (cyclo([Ahp(2)]WG[NMeK]([CO-Piperazinyl(4-CH2COOH)])D[dP]GG[NMeF]Y)), for which the Kd on mouse FAP [1] amounted to 1900 pM. Besides, the IC50 at human FAP turned out to be 760 pM; on mouse FAP [2], 950 pM.

As to `CCCCC[C@@H]1NC(=O)[C@H](Cc2ccc(O)cc2)NC(=O)[C@H](Cc2ccccc2)N(C)C(=O)CNC(=O)CNC(=O)[C@H]2CCCN2C(=O)[C@H](CC(=O)O)NC(=O)[C@H](CCCNC(=O)N2CCN(CC(=O)O)CC2)NC(=O)CNC(=O)[C@H](Cc2c[nH]c3ccccc23)NC1=O` [Example A4, Gly-Gly-NMePhe-Tyr-Ahp-Trp-Gly-Orn(COPipzaa)-Asp-D-Pro, TFA salt] (cyclo([Ahp(2)]WG[Orn]([CO-Piperazinyl(4-CH2COOH)])D[dP]GG[NMeF]Y)), the Kd at mouse FAP [1] turned out to be 470 pM. Moreover, the results for the IC50 at human FAP and on mouse FAP [2] were 203 pM and 570 pM, respectively.

For `CCCCC[C@@H]1NC(=O)[C@H](Cc2ccc(O)cc2)NC(=O)[C@H](Cc2ccccc2)N(C)C(=O)CNC(=O)CNC(=O)[C@H]2CCCN2C(=O)[C@H](CC(=O)O)NC(=O)[C@H](CCNC(=O)N2CCN(CC(=O)O)CC2)NC(=O)CNC(=O)[C@H](Cc2c[nH]c3ccccc23)NC1=O` [Example A5, Gly-Gly-NMePhe-Tyr-Ahp-Trp-Gly-Dab(COPipzaa)-Asp-D-Pro] (cyclo([Ahp(2)]WG[Dab]([CO-Piperazinyl(4-CH2COOH)])D[dP]GG[NMeF]Y)), the affinity at mouse FAP [1], expressed as Kd, was 620 pM. Also, the half-inhibitory concentration (IC50) was determined as 70 pM on human FAP and 500 pM at mouse FAP [2].

Compound `CCCCC[C@@H]1NC(=O)[C@H](Cc2ccc(OCCN)cc2)NC(=O)[C@H](Cc2ccccc2)N(C)C(=O)CNC(=O)CNC(=O)[C@H]2CCCN2C(=O)[C@H](CC(=O)O)NC(=O)[C@H](CCCCNC(=O)N2CCN(CC(=O)O)CC2)NC(=O)CNC(=O)[C@H](Cc2c[nH]c3ccccc23)NC1=O` [Example A6, 2-((9S,12S,15S,18S,24S,27S,32aR)-18-((1H-indol-3-yl)methyl)-12-(4-(2-aminoethoxy)benzyl)-9-benzyl-24-(4-(4-(carboxymethyl)piperazine-1-carboxamido)butyl)-8-methyl-1,4,7,10,13,16,19,22,25,28-decaoxo-15-pentyldotriacontahydropyrrolo[1,2-a][1,4,7,10,13,16,19,22,25,28]decaazacyclotriacontin-27-yl)acetic acid TFA salt] (cyclo([AEF][Ahp(2)]WGK([CO-Piperazinyl(4-CH2COOH)])D[dP]GG[NMeF])) showed a Kd at mouse FAP [1] of 188 pM. Besides, the IC50 came out at 71 pM on human FAP and 178 pM at mouse FAP [2].

At mouse FAP [1], `CCCCC[C@@H]1NC(=O)[C@H](Cc2ccc(O)cc2)NC(=O)[C@H](Cc2ccccc2)N(C)C(=O)CNC(=O)CNC(=O)[C@H]2CCCN2C(=O)[C@H](CC(=O)O)NC(=O)[C@H](Cc2cccc(O)c2)NC(=O)CNC(=O)[C@H](Cc2c[nH]c3ccccc23)NC1=O` [Example A14, Gly-Gly-NMePhe-Tyr-Ahp-Trp-Gly-F(3OH)-Asp-D-Pro] (cyclo([Ahp(2)]WG[mTyr]D[dP]GG[NMeF]Y)) registered a Kd of 239 pM. In addition, the IC50 on human FAP was 92 pM; on mouse FAP [2] it was 370 pM.
